Laboratory results: ChEMBL document CHEMBL1147799, “An integrated in silico 3D model-driven discovery of a novel, potent, and selective amidosulfonamide 5-HT1A agonist (PRX-00023) for the treatment of anxiety and depression” (J Med Chem, 2006)
Active and inactive are the calls of the source. No cut-off for these calls is given here.

Experiments:
[1] = biological target: 5-hydroxytryptamine receptor 7 (Homo sapiens, UniProt P34969)
Description: Binding affinity to 5HT7 receptor by radioligand binding assay

[2] = biological target: Sodium-dependent noradrenaline transporter (Homo sapiens, UniProt P23975); test: Binding affinity to norepinephrine transporter by radioligand binding assay
[3] = biological target: Muscarinic acetylcholine receptor; test: Binding affinity to muscarinic receptor by radioligand binding assay; type: protein assay
[4] = biological target: 5-hydroxytryptamine receptor 2B (Homo sapiens, UniProt P41595); test: Binding affinity to 5HT2B receptor by radioligand binding assay
[5] = Cmax in Sprague-Dawley rat at 3 mg/kg, po; type: ADME, organism-based; set-up: dose 3 mg/kg, route oral; details: in vivo
[6] = Binding affinity to melanocortin receptor by radioligand binding assay
[7] = biological target: Cytochrome P450 2C19 (Homo sapiens, UniProt P33261); test: Inhibition of human recombinant cytochrome P450 2C19; type: ADME; details: recombinant enzyme
Cytochrome P450 2C19, sequence (P33261 whole entry): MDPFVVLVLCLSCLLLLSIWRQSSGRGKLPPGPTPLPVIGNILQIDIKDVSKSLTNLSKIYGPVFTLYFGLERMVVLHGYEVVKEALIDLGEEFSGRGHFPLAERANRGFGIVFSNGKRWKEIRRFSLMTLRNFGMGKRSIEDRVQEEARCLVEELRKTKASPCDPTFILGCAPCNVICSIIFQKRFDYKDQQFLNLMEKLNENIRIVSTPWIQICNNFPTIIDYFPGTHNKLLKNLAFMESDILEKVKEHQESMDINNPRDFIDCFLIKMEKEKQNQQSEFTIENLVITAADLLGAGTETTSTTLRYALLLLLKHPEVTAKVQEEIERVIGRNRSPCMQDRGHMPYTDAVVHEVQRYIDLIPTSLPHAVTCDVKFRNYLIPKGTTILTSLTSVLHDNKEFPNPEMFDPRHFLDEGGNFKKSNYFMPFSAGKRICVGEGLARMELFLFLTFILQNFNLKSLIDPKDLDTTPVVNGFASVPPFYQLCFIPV

[8] = Protein binding in human serum at 2 uM; type: ADME, organism-based; details: read-out: PPB (converted)
[9] = biological target: 5-hydroxytryptamine receptor 5A (Homo sapiens, UniProt P47898); test: Binding affinity to human 5HT5A receptor by radioligand binding assay
5-hydroxytryptamine receptor 5A, sequence (P47898 whole entry): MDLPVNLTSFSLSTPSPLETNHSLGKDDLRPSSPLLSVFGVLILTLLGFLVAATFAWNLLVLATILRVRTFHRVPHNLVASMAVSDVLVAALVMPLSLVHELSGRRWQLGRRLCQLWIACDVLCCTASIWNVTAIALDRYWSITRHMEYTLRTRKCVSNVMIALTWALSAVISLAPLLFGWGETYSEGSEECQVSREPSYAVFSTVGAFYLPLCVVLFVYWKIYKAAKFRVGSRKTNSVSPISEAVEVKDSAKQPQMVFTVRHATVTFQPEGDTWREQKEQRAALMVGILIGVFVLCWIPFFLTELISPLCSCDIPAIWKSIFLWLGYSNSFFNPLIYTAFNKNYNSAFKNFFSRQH

[10] = Ratio of drug level in brain against serum in Sprague-Dawley rat at 3 mg/kg, po or 1 mg/kg, iv after 1 hr; type: ADME, organism-based; details: read-out: BBR
[11] = biological target: Cytochrome P450 1A2 (Homo sapiens, UniProt P05177); test: Inhibition of human recombinant cytochrome P450 1A2; type: ADME; details: recombinant enzyme
[12] = biological target: Endothelin receptor, ET-A/ET-B (Homo sapiens, UniProt P24530+P25101); test: Binding affinity to endothelin receptor by radioligand binding assay; type: protein assay
[13] = Binding affinity to neuropeptide receptor by radioligand binding assay
[14] = Cmax in Beagle dog at 3 mg/kg, po; type: ADME, organism-based, Canis lupus familiaris; set-up: dose 3 mg/kg, route oral; details: in vivo
[15] = biological target: T1, 5-hydroxytryptamine receptor 1A (Homo sapiens, UniProt P08908); test: Activity against 5HT1A receptor by Gi-[35S]GTP-gamma-S binding assay; type: functional
T1 sequence (P08908 whole entry): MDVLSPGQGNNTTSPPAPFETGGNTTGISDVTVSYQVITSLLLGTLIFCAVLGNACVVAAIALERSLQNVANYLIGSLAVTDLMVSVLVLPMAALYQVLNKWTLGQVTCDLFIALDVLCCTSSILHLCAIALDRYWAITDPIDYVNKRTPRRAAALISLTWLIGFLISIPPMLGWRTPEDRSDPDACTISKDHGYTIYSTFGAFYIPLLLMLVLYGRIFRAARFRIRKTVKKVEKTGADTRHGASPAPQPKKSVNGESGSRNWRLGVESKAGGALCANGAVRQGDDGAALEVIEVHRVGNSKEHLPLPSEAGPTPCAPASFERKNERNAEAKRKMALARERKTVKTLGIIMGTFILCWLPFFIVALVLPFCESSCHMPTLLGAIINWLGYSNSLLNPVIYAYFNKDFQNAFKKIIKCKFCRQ

[16] = Toxicity in po dosed Beagle dog; type: organism-based, Canis lupus familiaris; details: in vivo
[17] = Binding affinity to chemokine receptor by radioligand binding assay
[18] = Binding affinity to neurotensin receptor by radioligand binding assay
[19] = Binding affinity to galanin receptor by radioligand binding assay
[20] = biological target: 5-hydroxytryptamine receptor 1A (Rattus norvegicus, UniProt P19327); test: Binding affinity to 5HT1A receptor in rat cerebral cortex by radioligand binding assay; type: tissue-based
5-hydroxytryptamine receptor 1A (Rattus norvegicus, UniProt P19327), sequence (P19327 whole entry): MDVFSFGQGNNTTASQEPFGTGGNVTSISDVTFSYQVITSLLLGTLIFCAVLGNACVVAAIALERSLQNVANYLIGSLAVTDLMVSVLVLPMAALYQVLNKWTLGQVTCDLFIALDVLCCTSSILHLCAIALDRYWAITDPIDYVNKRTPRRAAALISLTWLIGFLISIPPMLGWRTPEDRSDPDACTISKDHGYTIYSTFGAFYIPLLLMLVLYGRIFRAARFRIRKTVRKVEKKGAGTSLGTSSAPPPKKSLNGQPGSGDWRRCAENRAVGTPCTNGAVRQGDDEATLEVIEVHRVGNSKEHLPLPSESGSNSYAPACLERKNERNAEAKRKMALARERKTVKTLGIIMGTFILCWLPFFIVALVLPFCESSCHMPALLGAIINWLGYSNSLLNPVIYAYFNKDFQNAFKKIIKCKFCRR

[21] = biological target: Nociceptin receptor (Homo sapiens, UniProt P41146); test: Binding affinity to orphanin receptor by radioligand binding assay
Nociceptin receptor, sequence (P41146 whole entry): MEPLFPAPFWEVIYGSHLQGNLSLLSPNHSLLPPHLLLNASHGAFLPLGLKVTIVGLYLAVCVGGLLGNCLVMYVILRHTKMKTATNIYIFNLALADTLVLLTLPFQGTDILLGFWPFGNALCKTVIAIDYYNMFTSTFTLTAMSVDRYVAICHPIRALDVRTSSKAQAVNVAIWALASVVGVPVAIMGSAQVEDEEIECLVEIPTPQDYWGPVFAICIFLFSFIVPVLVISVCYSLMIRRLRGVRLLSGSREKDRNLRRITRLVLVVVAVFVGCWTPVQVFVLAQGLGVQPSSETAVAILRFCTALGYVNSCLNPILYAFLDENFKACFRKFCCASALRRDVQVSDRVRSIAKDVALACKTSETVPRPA

[22] = Binding affinity to vasoactive intestinal peptide receptor by radioligand binding assay
[23] = Binding affinity to chloride channel by radioligand binding assay
[24] = Half life in Sprague-Dawley rat at 3 mg/kg, po; type: ADME, organism-based; set-up: dose 3 mg/kg, route oral; details: in vivo
[25] = biological target: Translocator protein (Homo sapiens, UniProt P30536); test: Binding affinity to benzodiazepine receptor by radioligand binding assay
Translocator protein, sequence (P30536 whole entry): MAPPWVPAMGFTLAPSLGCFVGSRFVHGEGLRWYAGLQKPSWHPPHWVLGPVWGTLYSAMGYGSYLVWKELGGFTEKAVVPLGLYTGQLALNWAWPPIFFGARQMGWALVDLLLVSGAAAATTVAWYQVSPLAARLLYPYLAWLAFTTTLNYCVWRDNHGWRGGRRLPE

[26] = Binding affinity to bradykinin receptor by radioligand binding assay
[27] = biological target: 5-hydroxytryptamine receptor 2C (Homo sapiens, UniProt P28335); test: Binding affinity to human 5HT2C receptor by radioligand binding assay
[28] = biological target: Angiotensin II receptor (Homo sapiens, UniProt P30556+P50052); test: Binding affinity to angiotensin2 receptor by radioligand binding assay; type: protein assay
[29] = biological target: Serotonin 3 receptor (5HT3) (Mus musculus, UniProt Q9JHJ5+P23979); test: Binding affinity to mouse 5HT3 receptor by radioligand binding assay; type: protein assay
[30] = Binding affinity to vasopressin receptor by radioligand binding assay
[31] = biological target: Cytochrome P450 2C9 (Homo sapiens, UniProt P11712); test: Inhibition of human recombinant cytochrome P450 2C9; type: ADME; details: recombinant enzyme
Cytochrome P450 2C9, sequence (P11712 whole entry): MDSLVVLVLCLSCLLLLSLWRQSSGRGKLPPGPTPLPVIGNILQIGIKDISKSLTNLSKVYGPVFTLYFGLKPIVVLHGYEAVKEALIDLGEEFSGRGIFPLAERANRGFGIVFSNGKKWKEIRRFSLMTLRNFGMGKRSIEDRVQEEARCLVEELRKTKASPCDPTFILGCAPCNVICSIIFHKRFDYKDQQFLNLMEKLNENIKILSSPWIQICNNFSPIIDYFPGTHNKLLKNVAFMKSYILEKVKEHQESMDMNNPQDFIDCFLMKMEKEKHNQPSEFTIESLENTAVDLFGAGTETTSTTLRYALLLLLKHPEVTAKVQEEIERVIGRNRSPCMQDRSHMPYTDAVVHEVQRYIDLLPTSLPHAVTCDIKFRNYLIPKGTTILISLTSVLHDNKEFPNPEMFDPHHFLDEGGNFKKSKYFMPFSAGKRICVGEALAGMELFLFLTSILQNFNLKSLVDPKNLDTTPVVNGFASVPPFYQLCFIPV

[32] = biological target: D(2) dopamine receptor (Homo sapiens, UniProt P14416); test: Binding affinity to D2 receptor by radioligand binding assay
D(2) dopamine receptor, sequence (P14416 whole entry): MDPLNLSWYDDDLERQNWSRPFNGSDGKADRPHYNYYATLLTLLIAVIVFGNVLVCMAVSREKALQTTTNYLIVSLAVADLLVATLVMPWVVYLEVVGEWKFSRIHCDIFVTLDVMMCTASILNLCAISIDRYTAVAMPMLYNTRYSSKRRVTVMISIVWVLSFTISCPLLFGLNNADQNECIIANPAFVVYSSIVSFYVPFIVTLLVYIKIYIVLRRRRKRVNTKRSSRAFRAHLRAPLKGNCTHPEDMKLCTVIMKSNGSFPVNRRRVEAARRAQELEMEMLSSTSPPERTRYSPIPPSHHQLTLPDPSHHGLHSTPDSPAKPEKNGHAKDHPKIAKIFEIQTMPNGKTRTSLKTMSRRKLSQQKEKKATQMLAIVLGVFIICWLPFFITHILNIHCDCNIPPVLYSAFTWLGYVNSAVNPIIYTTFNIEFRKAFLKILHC

[33] = Half life in human liver S9 fraction at 5 uM; type: ADME
[34] = biological target: Sodium-dependent dopamine transporter (Homo sapiens, UniProt Q01959); test: Binding affinity to dopamine transporter by radioligand binding assay
Sodium-dependent dopamine transporter, sequence (Q01959 whole entry): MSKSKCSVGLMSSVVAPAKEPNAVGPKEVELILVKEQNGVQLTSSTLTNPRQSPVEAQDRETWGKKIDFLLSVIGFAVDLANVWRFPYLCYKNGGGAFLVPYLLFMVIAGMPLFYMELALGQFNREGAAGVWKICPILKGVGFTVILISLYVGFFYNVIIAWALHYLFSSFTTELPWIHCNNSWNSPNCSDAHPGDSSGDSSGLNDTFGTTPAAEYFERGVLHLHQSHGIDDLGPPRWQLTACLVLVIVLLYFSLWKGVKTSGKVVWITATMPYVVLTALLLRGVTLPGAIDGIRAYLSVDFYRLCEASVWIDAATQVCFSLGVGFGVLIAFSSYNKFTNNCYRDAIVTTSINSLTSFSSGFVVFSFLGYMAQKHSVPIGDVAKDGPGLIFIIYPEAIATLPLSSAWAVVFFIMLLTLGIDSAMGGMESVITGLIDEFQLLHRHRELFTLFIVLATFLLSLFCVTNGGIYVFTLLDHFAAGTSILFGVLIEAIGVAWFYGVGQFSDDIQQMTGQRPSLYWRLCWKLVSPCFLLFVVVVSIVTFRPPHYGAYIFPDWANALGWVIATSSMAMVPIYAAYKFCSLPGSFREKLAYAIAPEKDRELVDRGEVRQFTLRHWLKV

[35] = biological target: 5-hydroxytryptamine receptor 1B (Rattus norvegicus, UniProt P28564); test: Binding affinity to 5HT1B receptor in rat cerebral cortex by radioligand binding assay; type: tissue-based
5-hydroxytryptamine receptor 1B, sequence (P28564 whole entry): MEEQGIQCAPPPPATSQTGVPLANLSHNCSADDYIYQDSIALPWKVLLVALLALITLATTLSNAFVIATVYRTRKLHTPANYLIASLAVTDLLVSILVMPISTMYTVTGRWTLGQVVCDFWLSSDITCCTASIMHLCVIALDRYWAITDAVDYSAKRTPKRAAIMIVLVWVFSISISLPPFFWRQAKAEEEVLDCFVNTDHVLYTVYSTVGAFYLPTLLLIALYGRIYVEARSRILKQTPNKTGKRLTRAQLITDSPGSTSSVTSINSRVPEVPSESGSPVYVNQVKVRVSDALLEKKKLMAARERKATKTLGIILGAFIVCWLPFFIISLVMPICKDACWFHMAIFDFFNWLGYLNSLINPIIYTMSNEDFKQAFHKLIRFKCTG

[36] = biological target: hERG (KCNH2) (Homo sapiens, UniProt Q12809); test: Inhibition of hERG potassium channel in HEK293 cells by patch clamp assay at 1 uM; details: HEK293 cells that express hERG
hERG (KCNH2), sequence (Q12809 whole entry): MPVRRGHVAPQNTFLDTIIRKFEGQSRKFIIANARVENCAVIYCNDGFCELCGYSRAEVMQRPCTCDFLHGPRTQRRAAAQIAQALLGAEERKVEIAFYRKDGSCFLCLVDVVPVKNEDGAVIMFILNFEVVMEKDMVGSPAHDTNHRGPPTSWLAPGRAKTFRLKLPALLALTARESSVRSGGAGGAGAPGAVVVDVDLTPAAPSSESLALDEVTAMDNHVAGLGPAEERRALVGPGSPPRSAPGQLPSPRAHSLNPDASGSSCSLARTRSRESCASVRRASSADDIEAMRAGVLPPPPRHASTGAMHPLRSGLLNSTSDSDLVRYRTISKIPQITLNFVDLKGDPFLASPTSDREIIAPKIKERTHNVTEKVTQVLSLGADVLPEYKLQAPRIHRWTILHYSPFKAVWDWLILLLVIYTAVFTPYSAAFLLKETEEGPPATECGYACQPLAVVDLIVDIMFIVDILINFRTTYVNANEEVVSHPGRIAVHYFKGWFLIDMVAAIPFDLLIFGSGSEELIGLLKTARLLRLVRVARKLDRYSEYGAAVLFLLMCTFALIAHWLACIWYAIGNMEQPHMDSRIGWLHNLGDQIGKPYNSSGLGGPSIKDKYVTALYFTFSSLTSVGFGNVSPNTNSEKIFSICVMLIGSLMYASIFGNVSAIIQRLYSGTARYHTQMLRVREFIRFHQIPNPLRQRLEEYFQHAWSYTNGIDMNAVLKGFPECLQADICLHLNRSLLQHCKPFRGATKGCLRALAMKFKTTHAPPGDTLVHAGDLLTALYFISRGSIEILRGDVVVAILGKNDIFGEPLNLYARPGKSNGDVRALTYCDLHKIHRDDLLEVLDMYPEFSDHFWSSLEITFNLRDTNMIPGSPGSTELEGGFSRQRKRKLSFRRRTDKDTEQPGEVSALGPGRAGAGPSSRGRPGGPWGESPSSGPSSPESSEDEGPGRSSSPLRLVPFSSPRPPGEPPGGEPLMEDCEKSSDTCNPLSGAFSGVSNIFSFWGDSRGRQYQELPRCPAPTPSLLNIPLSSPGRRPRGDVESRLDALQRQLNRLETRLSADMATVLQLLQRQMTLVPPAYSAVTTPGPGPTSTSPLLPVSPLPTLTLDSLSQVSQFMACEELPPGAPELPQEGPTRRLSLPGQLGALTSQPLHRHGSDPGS

[37] = biological target: Opioid receptors; mu/kappa/delta (Homo sapiens, UniProt P41145+P41143+P35372); test: Binding affinity to opioid receptor by radioligand binding assay; type: protein assay
[38] = Binding affinity to neurokinin receptor by radioligand binding assay
[39] = species: Homo sapiens; test: Transient increase in prolactin level in human serum at greater than 30 mg; type: functional, organism-based
[40] = biological target: T2, Alpha-2A adrenergic receptor (Rattus norvegicus) (UniProt P22909); test: Displacement of [3H]RX 821002 from Adrenergic alpha-2a receptor in rat cerebral cortex cells at 1 uM; type: cell-based
T2 sequence (whole entry): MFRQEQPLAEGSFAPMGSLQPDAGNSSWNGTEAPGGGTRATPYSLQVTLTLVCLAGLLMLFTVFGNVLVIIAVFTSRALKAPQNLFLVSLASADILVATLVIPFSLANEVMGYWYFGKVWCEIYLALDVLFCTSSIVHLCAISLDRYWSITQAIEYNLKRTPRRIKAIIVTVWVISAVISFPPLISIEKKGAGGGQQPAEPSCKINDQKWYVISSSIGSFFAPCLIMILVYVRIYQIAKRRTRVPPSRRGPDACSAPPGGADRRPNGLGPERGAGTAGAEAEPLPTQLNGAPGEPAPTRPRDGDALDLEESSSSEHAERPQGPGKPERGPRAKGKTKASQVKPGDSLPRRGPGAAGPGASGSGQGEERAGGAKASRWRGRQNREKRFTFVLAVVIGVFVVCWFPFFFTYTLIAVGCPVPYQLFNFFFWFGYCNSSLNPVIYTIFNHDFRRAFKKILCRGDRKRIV

CC(=O)Nc1cccc(N2CCN(CCCCNS(=O)(=O)CC3CCCCC3)CC2)c1 [NALUZOTAN]
Ki [1]: 700 nM
Ki [2]: > 2000 nM
Ki [3]: > 2000 nM
Ki [4]: > 5000 nM
Cmax [5]: 24 ng/mL
Ki [6]: > 2000 nM
Inhibition [7]: Not Active
fraction unbound at 2 µM [8]: 0.08
Ki [9]: > 5000 nM
Kp at 1 h [10]: 0.5
Inhibition [11]: Not Active
Ki [12]: > 2000 nM
Ki [13]: > 2000 nM
Cmax [14]: 174 ng/mL
EC50 [15]: 20 nM
MTD [16]: 600 mg/kg
Ki [17]: > 2000 nM
Ki [18]: > 2000 nM
Ki [19]: > 2000 nM
Ki [20]: 17 nM
Ki [21]: > 2000 nM
Ki [22]: > 2000 nM
Ki [23]: > 10000 nM
half-life [24]: 2 h
Ki [25]: > 2000 nM
Ki [26]: > 2000 nM
Ki [27]: > 5000 nM
Ki [28]: > 2000 nM
Ki [29]: > 5000 nM
Ki [30]: > 2000 nM
Inhibition [31]: Not Active
Ki [32]: > 2000 nM
half-life at 5 µM [33]: 1.08 h
Ki [34]: > 2000 nM
Ki [35]: > 2000 nM
inhibition at 1 µM [36]: 21%
Ki [37]: > 2000 nM
Ki [38]: > 2000 nM
Activity [39]: Active
Activity [40]: 0%
